Data: patent publication US20110319431A1, “Bis Aromatic Compounds for Use as LTC4 Synthase Inhibitors” (BIOLIPOX AB, priority 2009, published 2011)
pIC50: −log10 of the molar value.

target: T1, Recombinant human LTC4 synthase (Homo sapiens, UniProt Q16873); assay: In vitro LTC4 synthase assay (LTA4 to LTC4, HTRF detection); type: biochemical; settings: Table 4, title compounds of Example 4
T1 construct: made in house; host or cells: Pichia pastoris
T1 sequence (Q16873 1-150): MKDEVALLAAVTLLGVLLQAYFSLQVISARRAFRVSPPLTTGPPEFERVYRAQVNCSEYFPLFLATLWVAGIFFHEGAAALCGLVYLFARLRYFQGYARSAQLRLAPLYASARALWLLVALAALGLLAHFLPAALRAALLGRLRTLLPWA
Outline: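 Recombinant human LTC4 synthase expressed in Pichia, 0.5 μg/mL total protein in PBS pH 7.4 with 5 mM GSH, preincubated 10 min at RT with inhibitor (final 10 μM). LTA4 (final 2.5 μM) then added, 5 min at RT. LTC4 formed read by HTRF.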

`CN(c1ccc(Cl)cc1)c1ccc(C(=O)c2cc(Sc3cccc(OC(F)(F)F)c3)cc(C(=O)O)c2)cc1` [4:8, 3-{4-[(4-Chlorophenyl)(methyl)amino]benzoyl}-5-(3-(trifluoromethoxy)-phenylsulfanyl)benzoic acid] and `CN(c1ccc(Cl)cc1)c1ccc(C(=O)c2cc(Sc3ccccc3)cc(C(=O)O)c2)nc1` [4:4, 3-{5-[(4-Chlorophenyl)(methyl)amino]picolinoyl}-5-phenylsulfanylbenzoic acid] are within 0.2 log units of each other in pIC50: 6.83 for the first, 6.87 for the second.

same assay, conditions: title compounds of the Examples

`CCCCCC[S+]([O-])c1ccc(C(=O)c2ccc(N(C)c3ccc(Cl)cc3)cn2)cc1C(=O)O` (centres unmarked) [Example 1:22, 5-{5-[(4-Chlorophenyl)methylamino]pyridine-2-carbonyl}-2-(1-hexylsulfinyl)-benzoic acid] and `CN(c1ccc(Cl)cc1)c1ccc(C(=O)c2ccc(Sc3ccc(F)c(F)c3)c(C(=O)O)c2)nc1` [2:6] are within 0.2 log units of each other in pIC50: 7.39 for the first, 7.33 for the second.

Compared with `COc1ccc(Sc2ccc(C(=O)c3ccc(OCc4cccc(Cl)c4)cn3)cc2C(=O)O)cc1` [Example 2:22, 5-[5-(3-Chlorobenzyloxy)pyridine-2-carbonyl]-2-(4-methoxyphenyl-sulfanyl)benzoic acid], `O=C(c1ccc(Sc2ccc(Br)cc2)c(C(=O)O)c1)c1ccc(N(CC2CC2)c2ccc(Cl)cc2)cn1` [2:17, 2-(4-Bromophenylsulfanyl)-5-{5-[(4-chlorophenyl)cyclopropylmethyl-amino]pyridine-2-carbonyl}benzoic acid] is 0.39 log units higher in pIC50: 6.60 for the first, 6.99 for the second.

First: CN(c1ccc(Cl)cc1)c1ccc(C(=O)c2ccc(SCC34CCC(CC3O)C4(C)C)c(C(=O)O)c2)cc1 (centres unmarked) [2:4, 5-{4-[(4-Chlorophenyl)methylamino]benzoyl}-2-(2-hydroxy-7,7-dimethyl-bicyclo[2.2.1]-1-heptylmethylsulfanyl)benzoic acid]
Second: O=C(c1ccc([S+]([O-])c2ccc(Br)cc2)c(C(=O)O)c1)c1ccc(N(CC2CC2)c2ccc(Cl)cc2)cn1 (centres unmarked) [1:17, 2-(4-Bromophenylsulfinyl)-5-{5-[(4-chlorophenyl)cyclopropylmethylamino]-pyridine-2-carbonyl}benzoic acid]
The pIC50 of the first is 0.58 log units lower: 6.89 for the first, 7.47 for the second.
